# Measured values: ChEMBL document CHEMBL5325423, “Discovery of 7H-Pyrrolo[2,3-d]pyrimidine Derivatives as potent hematopoietic progenitor kinase 1 (HPK1) inhibitors” (Eur J Med Chem, 2023)
# Key:
# [1] = target: T1, Mitogen-activated protein kinase kinase kinase kinase 1 (Homo sapiens, UniProt Q92918); assay: Inhibition of human HPK1 using myelin basic protein and [gamma33P]ATP as substrate incubated for 40 mins in presence of Mg/ATP by radiometric scintillation counting analysis
# [2] = target: T1, Mitogen-activated protein kinase kinase kinase kinase 1; assay: Inhibition of wild type HPK1 (unknown origin) using FAM-FPQAAsLPPYFAKKK peptide as substrate in presence of ATP by caliper assay
# [3] = target: T1, Mitogen-activated protein kinase kinase kinase kinase 1; assay: Inhibition of human HPK1 in anti-human CD3 stimulated human Jurkat T cells assessed as inhibition of SLP76 phosphorylation preincubated for 10 mins followed by anti-human CD3 stimulation and measured after 60 mins by Western blot analysis; type: cell-based
# [4] = target: T1, Mitogen-activated protein kinase kinase kinase kinase 1; assay: Inhibition of human HPK1 in human Jurkat T cells assessed as increase in anti-human CD3 stimulated IL-2 secretion preincubated for 10 mins followed by anti-human CD3 stimulation and measured after 24 hrs by ELISA; type: cell-based
# [5] = target: ALK tyrosine kinase receptor (Homo sapiens) (UniProt Q9UM73); assay: Inhibition of ALK (unknown origin) assessed as remaining activity at 1 uM relative to control
# Chain of ALK tyrosine kinase receptor (Homo sapiens) (Q9UM73 19-1620 limits assumed): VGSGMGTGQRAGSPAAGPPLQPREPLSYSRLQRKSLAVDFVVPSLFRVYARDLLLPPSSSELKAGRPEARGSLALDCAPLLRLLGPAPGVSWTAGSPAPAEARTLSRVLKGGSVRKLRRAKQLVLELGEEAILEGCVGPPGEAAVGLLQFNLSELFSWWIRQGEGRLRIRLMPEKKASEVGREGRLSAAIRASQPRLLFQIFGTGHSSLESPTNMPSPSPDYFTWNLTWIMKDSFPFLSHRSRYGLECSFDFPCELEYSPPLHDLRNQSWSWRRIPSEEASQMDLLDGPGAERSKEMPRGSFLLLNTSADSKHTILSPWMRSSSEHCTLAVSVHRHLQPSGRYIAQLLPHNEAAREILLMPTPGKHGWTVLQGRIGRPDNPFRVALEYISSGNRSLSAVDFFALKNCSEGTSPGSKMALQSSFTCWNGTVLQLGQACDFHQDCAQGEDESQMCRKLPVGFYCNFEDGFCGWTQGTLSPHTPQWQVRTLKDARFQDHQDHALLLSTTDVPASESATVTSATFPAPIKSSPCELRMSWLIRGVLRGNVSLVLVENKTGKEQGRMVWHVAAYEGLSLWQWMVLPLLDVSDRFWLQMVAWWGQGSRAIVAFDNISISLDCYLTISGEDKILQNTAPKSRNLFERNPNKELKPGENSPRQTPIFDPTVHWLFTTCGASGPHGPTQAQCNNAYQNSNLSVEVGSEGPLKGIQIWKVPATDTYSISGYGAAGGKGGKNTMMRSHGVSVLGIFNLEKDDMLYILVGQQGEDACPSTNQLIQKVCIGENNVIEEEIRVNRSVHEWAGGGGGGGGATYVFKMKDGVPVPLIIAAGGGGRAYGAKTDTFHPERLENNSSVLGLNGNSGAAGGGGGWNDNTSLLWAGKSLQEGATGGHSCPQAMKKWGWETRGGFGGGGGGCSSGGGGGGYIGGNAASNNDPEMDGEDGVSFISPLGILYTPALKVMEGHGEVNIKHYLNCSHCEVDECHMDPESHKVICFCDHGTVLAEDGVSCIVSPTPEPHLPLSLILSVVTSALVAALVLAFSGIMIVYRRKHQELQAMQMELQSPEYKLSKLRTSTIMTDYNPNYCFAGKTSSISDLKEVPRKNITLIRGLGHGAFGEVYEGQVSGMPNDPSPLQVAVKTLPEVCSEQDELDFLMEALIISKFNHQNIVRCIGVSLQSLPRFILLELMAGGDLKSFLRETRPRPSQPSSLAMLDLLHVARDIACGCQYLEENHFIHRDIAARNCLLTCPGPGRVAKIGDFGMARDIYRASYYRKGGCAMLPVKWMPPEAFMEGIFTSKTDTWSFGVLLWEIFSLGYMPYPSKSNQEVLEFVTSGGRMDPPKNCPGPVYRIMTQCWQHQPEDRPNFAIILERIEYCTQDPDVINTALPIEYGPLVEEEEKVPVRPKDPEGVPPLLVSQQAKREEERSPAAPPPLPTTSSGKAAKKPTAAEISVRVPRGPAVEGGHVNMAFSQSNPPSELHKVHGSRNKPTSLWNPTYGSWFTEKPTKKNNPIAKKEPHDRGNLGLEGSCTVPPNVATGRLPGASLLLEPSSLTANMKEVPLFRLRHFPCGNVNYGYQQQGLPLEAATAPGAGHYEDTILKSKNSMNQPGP
# [6] = target: Interleukin-1 receptor-associated kinase 4 (Homo sapiens) (UniProt Q9NWZ3); assay: Inhibition of IRAK4 (unknown origin) assessed as remaining activity at 1 uM relative to control
# Chain of Interleukin-1 receptor-associated kinase 4 (Homo sapiens) (Q9NWZ3 whole entry): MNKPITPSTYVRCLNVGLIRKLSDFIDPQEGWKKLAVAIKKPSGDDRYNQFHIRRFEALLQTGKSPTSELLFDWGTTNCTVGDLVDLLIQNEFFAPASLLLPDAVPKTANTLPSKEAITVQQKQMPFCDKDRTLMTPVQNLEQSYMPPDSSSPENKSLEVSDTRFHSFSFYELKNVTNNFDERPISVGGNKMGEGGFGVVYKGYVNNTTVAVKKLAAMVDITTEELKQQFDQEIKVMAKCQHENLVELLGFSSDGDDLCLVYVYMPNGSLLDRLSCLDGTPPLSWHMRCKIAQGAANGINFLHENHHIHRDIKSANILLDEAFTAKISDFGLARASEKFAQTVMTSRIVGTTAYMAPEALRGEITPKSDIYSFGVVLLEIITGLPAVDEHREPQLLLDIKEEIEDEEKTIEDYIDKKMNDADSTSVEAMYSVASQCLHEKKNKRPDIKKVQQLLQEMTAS
# [7] = target: Leucine-rich repeat serine/threonine-protein kinase 2 (Homo sapiens) (UniProt Q5S007); assay: Inhibition of LRRK2 (unknown origin) assessed as remaining activity at 1 uM relative to control
# [8] = target: Dual specificity protein kinase TTK (Homo sapiens) (UniProt P33981); assay: Inhibition of TTK (unknown origin) assessed as remaining activity at 1 uM relative to control
# [9] = target: Focal adhesion kinase 1 (Homo sapiens) (UniProt Q05397); assay: Inhibition of FAK (unknown origin) assessed as remaining activity at 1 uM relative to control
# Chain of Focal adhesion kinase 1 (Homo sapiens) (Q05397 2-1052 limits assumed): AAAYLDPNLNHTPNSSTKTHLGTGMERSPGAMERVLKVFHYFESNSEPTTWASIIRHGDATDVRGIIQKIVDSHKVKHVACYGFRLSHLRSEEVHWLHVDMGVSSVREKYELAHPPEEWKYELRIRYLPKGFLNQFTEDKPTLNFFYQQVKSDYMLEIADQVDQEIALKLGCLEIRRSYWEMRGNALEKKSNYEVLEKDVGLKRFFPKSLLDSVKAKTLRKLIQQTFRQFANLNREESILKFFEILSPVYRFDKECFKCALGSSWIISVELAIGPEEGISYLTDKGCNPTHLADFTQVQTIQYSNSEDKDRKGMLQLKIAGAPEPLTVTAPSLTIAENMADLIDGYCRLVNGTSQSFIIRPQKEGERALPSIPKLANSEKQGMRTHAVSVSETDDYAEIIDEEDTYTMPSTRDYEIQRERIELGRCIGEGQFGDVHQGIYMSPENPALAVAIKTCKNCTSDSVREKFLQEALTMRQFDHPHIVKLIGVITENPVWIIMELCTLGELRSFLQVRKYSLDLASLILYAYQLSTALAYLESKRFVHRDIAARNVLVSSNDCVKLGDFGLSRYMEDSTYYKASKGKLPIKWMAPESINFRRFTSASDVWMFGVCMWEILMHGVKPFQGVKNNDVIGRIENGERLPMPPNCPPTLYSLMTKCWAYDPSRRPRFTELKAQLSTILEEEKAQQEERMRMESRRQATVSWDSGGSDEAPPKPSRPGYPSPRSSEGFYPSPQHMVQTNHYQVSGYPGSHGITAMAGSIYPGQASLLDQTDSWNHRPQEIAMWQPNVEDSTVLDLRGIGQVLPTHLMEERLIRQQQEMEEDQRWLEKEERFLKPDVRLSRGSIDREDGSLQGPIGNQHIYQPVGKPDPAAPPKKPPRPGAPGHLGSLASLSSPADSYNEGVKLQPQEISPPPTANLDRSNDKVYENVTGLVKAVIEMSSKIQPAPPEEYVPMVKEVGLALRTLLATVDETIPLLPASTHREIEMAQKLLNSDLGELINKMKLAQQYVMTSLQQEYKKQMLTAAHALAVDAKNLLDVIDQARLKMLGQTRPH
# [10] = target: Tyrosine-protein kinase receptor UFO (Homo sapiens) (UniProt P30530); assay: Inhibition of AXL (unknown origin) assessed as remaining activity at 1 uM relative to control
# [11] = target: Receptor-type tyrosine-protein kinase FLT3 (Homo sapiens) (UniProt P36888); assay: Inhibition of FLT3 (unknown origin) assessed as remaining activity at 1 uM relative to control
# [12] = target: Tyrosine-protein kinase JAK2 (Homo sapiens) (UniProt O60674); assay: Inhibition of JAK2 (unknown origin) assessed as remaining activity at 1 uM relative to control
# [13] = target: Epidermal growth factor receptor (Homo sapiens) (UniProt P00533); assay: Inhibition of EGFR (unknown origin) assessed as remaining activity at 1 uM relative to control
# [14] = target: Tyrosine-protein kinase Lck (Homo sapiens) (UniProt P06239); assay: Inhibition of LCK (unknown origin) assessed as remaining activity at 1 uM relative to control
# [15] = target: Tyrosine-protein kinase Fyn (Homo sapiens) (UniProt P06241); assay: Inhibition of FYN (unknown origin) assessed as remaining activity at 1 uM relative to control
# Chain of Tyrosine-protein kinase Fyn (Homo sapiens) (P06241 2-537 limits assumed): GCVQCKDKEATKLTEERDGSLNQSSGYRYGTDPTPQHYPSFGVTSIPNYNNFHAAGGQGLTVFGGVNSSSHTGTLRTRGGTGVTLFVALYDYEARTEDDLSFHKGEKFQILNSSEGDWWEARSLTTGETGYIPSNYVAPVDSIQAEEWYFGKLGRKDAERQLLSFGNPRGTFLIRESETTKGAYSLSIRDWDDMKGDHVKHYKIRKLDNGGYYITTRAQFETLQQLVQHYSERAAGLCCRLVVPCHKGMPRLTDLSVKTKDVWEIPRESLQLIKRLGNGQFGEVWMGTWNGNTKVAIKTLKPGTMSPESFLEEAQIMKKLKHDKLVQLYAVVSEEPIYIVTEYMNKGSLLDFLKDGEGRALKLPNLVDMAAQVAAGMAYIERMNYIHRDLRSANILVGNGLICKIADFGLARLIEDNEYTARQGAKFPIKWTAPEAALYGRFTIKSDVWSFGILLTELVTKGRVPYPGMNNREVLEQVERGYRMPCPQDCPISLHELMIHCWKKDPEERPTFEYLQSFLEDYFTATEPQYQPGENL
# [16] = target: Tyrosine-protein kinase JAK1 (Homo sapiens) (UniProt P23458); assay: Inhibition of JAK1 (unknown origin) assessed as remaining activity at 1 uM relative to control
# [17] = target: Serine/threonine-protein kinase PAK 4 (Homo sapiens) (UniProt O96013); assay: Inhibition of PAK4 (unknown origin) assessed as remaining activity at 1 uM relative to control
# [18] = target: Insulin-like growth factor 1 receptor (Homo sapiens) (UniProt P08069); assay: Inhibition of IGF-1R (unknown origin) assessed as remaining activity at 1 uM relative to control
# [19] = target: Tyrosine-protein kinase SYK (Homo sapiens) (UniProt P43405); assay: Inhibition of SYK (unknown origin) assessed as remaining activity at 1 uM relative to control
# [20] = target: Tyrosine-protein kinase JAK3 (Homo sapiens) (UniProt P52333); assay: Inhibition of JAK3 (unknown origin) assessed as remaining activity at 1 uM relative to control
# [21] = target: Mitogen-activated protein kinase 10 (Homo sapiens) (UniProt P53779); assay: Inhibition of JNK3 (unknown origin) assessed as remaining activity at 1 uM relative to control
# [22] = target: Tyrosine-protein kinase BTK (Homo sapiens) (UniProt Q06187); assay: Inhibition of BTK (unknown origin) assessed as remaining activity at 1 uM relative to control
# [23] = target: Tyrosine-protein kinase ABL1 (Homo sapiens) (UniProt P00519); assay: Inhibition of ABL (unknown origin) assessed as remaining activity at 1 uM relative to control
# [24] = target: Mitogen-activated protein kinase 9 (Homo sapiens) (UniProt P45984); assay: Inhibition of JNK2 (unknown origin) assessed as remaining activity at 1 uM relative to control
# [25] = target: Tyrosine-protein kinase ZAP-70 (Homo sapiens) (UniProt P43403); assay: Inhibition of ZAP70 (unknown origin) assessed as remaining activity at 1 uM relative to control
# [26] = target: Mitogen-activated protein kinase 8 (Homo sapiens) (UniProt P45983); assay: Inhibition of JNK1 (unknown origin) assessed as remaining activity at 1 uM relative to control
# Chain of Mitogen-activated protein kinase 8 (Homo sapiens) (P45983 whole entry): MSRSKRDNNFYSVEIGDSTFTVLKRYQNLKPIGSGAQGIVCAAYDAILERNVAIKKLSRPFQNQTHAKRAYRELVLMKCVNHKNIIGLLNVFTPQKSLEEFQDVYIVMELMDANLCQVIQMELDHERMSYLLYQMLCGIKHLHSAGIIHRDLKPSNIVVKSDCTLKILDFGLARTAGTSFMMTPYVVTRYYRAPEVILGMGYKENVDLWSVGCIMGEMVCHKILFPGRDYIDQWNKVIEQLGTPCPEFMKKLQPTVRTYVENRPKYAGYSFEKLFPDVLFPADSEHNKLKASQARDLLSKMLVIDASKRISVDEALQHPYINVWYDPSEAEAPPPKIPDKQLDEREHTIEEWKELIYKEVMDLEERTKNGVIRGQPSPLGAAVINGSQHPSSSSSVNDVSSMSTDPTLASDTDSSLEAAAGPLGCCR
# [27] = target: ALK tyrosine kinase receptor (Homo sapiens) (UniProt Q9UM73); assay: Inhibition of ALK (unknown origin) at 1 uM
# [28] = target: Interleukin-1 receptor-associated kinase 4 (Homo sapiens) (UniProt Q9NWZ3); assay: Inhibition of IRAK4 (unknown origin) at 1 uM
# [29] = target: Leucine-rich repeat serine/threonine-protein kinase 2 (Homo sapiens) (UniProt Q5S007); assay: Inhibition of LRRK2 (unknown origin) at 1 uM
# [30] = target: T1, Mitogen-activated protein kinase kinase kinase kinase 1; assay: Inhibition of HPK1 (unknown origin)
# [31] = target: T1, Mitogen-activated protein kinase kinase kinase kinase 1; assay: Inhibition of human HPK1 in human Jurkat T cells assessed as inhibition of SLP76 phosphorylation
# T1 sequence (Q92918 whole entry): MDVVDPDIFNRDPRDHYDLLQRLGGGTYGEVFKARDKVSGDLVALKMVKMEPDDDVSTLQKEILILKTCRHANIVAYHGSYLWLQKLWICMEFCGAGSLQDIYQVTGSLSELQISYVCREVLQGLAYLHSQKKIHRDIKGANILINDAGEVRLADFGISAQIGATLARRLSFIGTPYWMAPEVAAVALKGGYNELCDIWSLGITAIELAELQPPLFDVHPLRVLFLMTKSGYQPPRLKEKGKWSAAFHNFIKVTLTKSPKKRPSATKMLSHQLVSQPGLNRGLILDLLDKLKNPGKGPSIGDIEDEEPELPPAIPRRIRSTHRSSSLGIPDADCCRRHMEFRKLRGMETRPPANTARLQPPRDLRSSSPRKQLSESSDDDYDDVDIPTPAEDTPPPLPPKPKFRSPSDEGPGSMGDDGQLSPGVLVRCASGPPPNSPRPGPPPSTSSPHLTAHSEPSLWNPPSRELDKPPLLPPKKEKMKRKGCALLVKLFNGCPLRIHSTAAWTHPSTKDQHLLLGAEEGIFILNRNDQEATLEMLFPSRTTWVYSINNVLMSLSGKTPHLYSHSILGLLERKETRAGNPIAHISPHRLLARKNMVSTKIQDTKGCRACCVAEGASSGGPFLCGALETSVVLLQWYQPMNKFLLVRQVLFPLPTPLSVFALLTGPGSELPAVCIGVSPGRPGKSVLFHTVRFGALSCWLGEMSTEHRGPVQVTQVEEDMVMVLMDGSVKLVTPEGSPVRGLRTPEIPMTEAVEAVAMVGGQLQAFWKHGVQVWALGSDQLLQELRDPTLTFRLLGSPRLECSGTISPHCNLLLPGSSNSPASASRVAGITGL
compound,measurement,setting,value
CCOc1cc(Nc2nc(Nc3ccccc3S(=O)(=O)N(C)C)c3c(-c4cccnc4)c[nH]c3n2)ccc1N1CCOCC1,IC50,[1],5.5 nM
COc1ccc(CN(C)C)cc1Nc1nc(Nc2ccccc2S(=O)(=O)N(C)C)c2c(-c3cccnc3)c[nH]c2n1,IC50,[1],97.5 nM
COc1cc2c(cc1Nc1nc(Nc3ccccc3)c3cc[nH]c3n1)CN(C)CC2,IC50,[1],313 nM
COc1cc2c(cc1Nc1nc(Nc3ccccc3S(=O)(=O)N3CCCCC3)c3cc[nH]c3n1)CN(C)CC2,IC50,[1],17.5 nM
COc1cc(Nc2nc(Nc3ccccc3S(=O)(=O)N(C)C)c3c(-c4cccnc4)c[nH]c3n2)ccc1N1CCOCC1,IC50,[1],4.5 nM
COc1cc2c(cc1Nc1nc(Nc3ccccc3F)c3cc[nH]c3n1)CN(C)CC2,IC50,[1],640 nM
COc1cc2c(cc1Nc1nc(Nc3ccccc3P(C)(C)=O)c3cc[nH]c3n1)CN(C)CC2,IC50,[1],7.5 nM
COc1cc2c(cc1Nc1nc(Nc3ccccc3S(=O)(=O)N(C)C)c3cc[nH]c3n1)CN(C)CC2,IC50,[1],2.5 nM
CN(C)S(=O)(=O)c1ccccc1Nc1nc(Nc2ccc(N3CCOCC3)cc2)nc2[nH]cc(-c3cccnc3)c12,IC50,[1],5 nM
CCCN(CCC)S(=O)(=O)c1ccccc1Nc1nc(Nc2cc3c(cc2OC)CCN(C)C3)nc2[nH]ccc12,IC50,[1],73 nM
COc1cc2c(cc1Nc1nc(Nc3ccccc3S(=O)(=O)N3CCC3)c3cc[nH]c3n1)CN(C)CC2,IC50,[1],1 nM
COc1cc2c(cc1Nc1ncc(Cl)c(Nc3ccccc3P(C)(C)=O)n1)CN(C)CC2,IC50,[2],< 5 nM
COc1cc2c(cc1Nc1nc(Nc3ccccc3OC(C)C)c3cc[nH]c3n1)CN(C)CC2,IC50,[1],84 nM
CN1CCc2cc(Nc3nc(Nc4ccccc4S(=O)(=O)N(C)C)c4c(-c5cccnc5)c[nH]c4n3)ccc2C1,IC50,[1],6 nM
COc1cc2c(cc1Nc1nc(Nc3ccccc3S(=O)(=O)N3CCC3)c3c(-c4cccnc4)c[nH]c3n1)CN(C)CC2,IC50,[1],45 nM
COc1cc2c(cc1Nc1nc(Nc3ccccc3S(=O)(=O)N3CCC(C)(C)CC3)c3cc[nH]c3n1)CN(C)CC2,IC50,[1],356 nM
COc1cc2c(cc1Nc1nc(Nc3ccccc3S(=O)(=O)C(C)C)c3cc[nH]c3n1)CN(C)CC2,IC50,[1],4.5 nM
CN1CCc2cc(Cl)c(Nc3nc(Nc4ccccc4S(=O)(=O)N(C)C)c4c(-c5cccnc5)c[nH]c4n3)cc2C1,IC50,[1],2 nM
same,IC50,[3],1210 nM
same,EC50,[4],1390 nM
same,Activity,[5],< 50%
same,Activity,[6],< 50%
same,Activity,[7],< 50%
same,Activity,[8],< 50%
same,Activity,[9],< 50%
same,Activity,[10],< 50%
same,Activity,[11],< 50%
same,Activity,[12],< 50%
same,Activity,[13],> 50%
same,Activity,[14],> 50%
same,Activity,[15],> 50%
same,Activity,[16],> 50%
same,Activity,[17],> 50%
same,Activity,[18],> 50%
same,Activity,[19],> 50%
same,Activity,[20],> 50%
same,Activity,[21],> 50%
same,Activity,[22],> 50%
same,Activity,[23],> 50%
same,Activity,[24],> 50%
same,Activity,[25],> 50%
same,Activity,[26],> 50%
same,inhibition,[27],> 90%
same,inhibition,[28],> 90%
same,inhibition,[29],> 90%
COc1cc2c(cc1Nc1nc(Nc3ccccc3S(=O)(=O)N(C)C)c3c(-c4ccncc4)c[nH]c3n1)CN(C)CC2,IC50,[1],9.5 nM
COc1cc2c(cc1Nc1nc(Nc3ccccc3S(=O)(=O)N3CCCC3)c3c(-c4cccnc4)c[nH]c3n1)CN(C)CC2,IC50,[1],4.5 nM
COc1cc2c(cc1Nc1nc(Nc3ccccc3S(=O)(=O)N(C)C)c3c(-c4ccc(N)nc4)c[nH]c3n1)CN(C)CC2,IC50,[1],12 nM
COc1cc2c(cc1Nc1nc(Nc3ccccc3S(=O)(=O)N(C)C)c3c(-c4ccoc4)c[nH]c3n1)CN(C)CC2,IC50,[1],4 nM
COc1cc2c(cc1Nc1nc(Nc3ccccc3S(=O)(=O)N(C)C)c3c(-c4ccccc4)c[nH]c3n1)CN(C)CC2,IC50,[1],> 1000 nM
COc1cc2c(cc1Nc1nc(Nc3ccccc3S(=O)(=O)N(C)C)c3c(-c4cnccc4C)c[nH]c3n1)CN(C)CC2,IC50,[1],14 nM
CN1CCc2ccc(Nc3nc(Nc4ccccc4S(=O)(=O)N(C)C)c4c(-c5cccnc5)c[nH]c4n3)cc2C1,IC50,[1],1.5 nM
COc1cc2c(cc1Nc1nc(Nc3ccccc3C(C)(C)C)c3cc[nH]c3n1)CN(C)CC2,IC50,[1],386 nM
COc1cc2c(cc1Nc1nc(Nc3ccccc3S(=O)(=O)N3CC(C)(C)C3)c3cc[nH]c3n1)CN(C)CC2,IC50,[1],12.5 nM
COc1cc(N2CCOCC2)ccc1Nc1nc(Nc2ccccc2S(=O)(=O)N(C)C)c2c(-c3cccnc3)c[nH]c2n1,IC50,[1],781 nM
COc1cc2c(cc1Nc1nc(Nc3ccccc3S(=O)(=O)N(C)C)c3c(-c4c(C)noc4C)c[nH]c3n1)CN(C)CC2,IC50,[1],42 nM
COc1cc2c(cc1Nc1nc(Nc3ccccc3S(=O)(=O)N3CCOCC3)c3cc[nH]c3n1)CN(C)CC2,IC50,[1],349 nM
COc1cc2c(cc1Nc1nc(Nc3ccccc3S(=O)(=O)N(C)C)c3c(-c4c[nH]nc4C)c[nH]c3n1)CN(C)CC2,IC50,[1],3.5 nM
COc1cc2c(cc1Nc1nc(Nc3ccccc3S(=O)(=O)N(C)C)c3c(-c4ccn(C)c(=O)c4)c[nH]c3n1)CN(C)CC2,IC50,[1],9 nM
COc1cc2c(cc1Nc1nc(Nc3ccccc3S(=O)(=O)N(C)C)c3c(-c4cccnc4)c[nH]c3n1)CN(C(C)C)CC2,IC50,[1],12 nM
COc1cc2c(cc1Nc1nc(Nc3ccccc3S(=O)(=O)N3CCCC3)c3cc[nH]c3n1)CN(C)CC2,IC50,[1],1.5 nM
COc1cc2c(cc1Nc1nc(Nc3ccccc3OC)c3cc[nH]c3n1)CN(C)CC2,IC50,[1],127 nM
COc1cc2c(cc1Nc1nc(Nc3ccccc3S(=O)(=O)N(C)C)c3c(-c4cn[nH]c4)c[nH]c3n1)CN(C)CC2,IC50,[1],3 nM
COc1cc2c(cc1Nc1nc(Nc3ccccc3C)c3cc[nH]c3n1)CN(C)CC2,IC50,[1],454 nM
COc1cc2c(cc1Nc1nc(Nc3ccccc3S(=O)(=O)N(C)C)c3c(-c4cnn(C)c4)c[nH]c3n1)CN(C)CC2,IC50,[1],9 nM
COc1cc2c(cc1Nc1nc(Nc3ccccc3Cl)c3cc[nH]c3n1)CN(C)CC2,IC50,[1],631 nM
CCN(CC)S(=O)(=O)c1ccccc1Nc1nc(Nc2cc3c(cc2OC)CCN(C)C3)nc2[nH]ccc12,IC50,[1],7 nM
COc1cc2c(cc1Nc1nc(Nc3ccccc3S(=O)(=O)N(C)C)c3c(-c4cccnc4C)c[nH]c3n1)CN(C)CC2,IC50,[1],29.5 nM
Cn1cc(Nc2ncc(C3=CCC[C@@H](NC(=O)c4ccccc4)C3)nc2C(N)=O)cn1,IC50,[30],86 nM
same,IC50,[31],150 nM
